Reference: ChEMBL document CHEMBL3576791, “Rational Design of a Novel AMPA Receptor Modulator through a Hybridization Approach” (ACS Med Chem Lett, 2015)
The source made the active and inactive calls. The rule behind the calls is not given here.

Key:
Type in all cases: cell-based
[1] = molecular target: Glutamate receptor 2 (Homo sapiens) (UniProt P42262); test: Modulation of GluA2 flop receptor (unknown origin) transfected in HEK293 cells assessed as desensitization measured as increase in steady-state current at 30 uM by electrophysiology
[2] = molecular target: Glutamate receptor 2 (Homo sapiens) (UniProt P42262); test: Modulation of GluA2 flop receptor (unknown origin) transfected in HEK293 cells assessed as deactivation of channel at 30 uM by electrophysiology
[3] = molecular target: Glutamate receptor 2 (Homo sapiens) (UniProt P42262); test: Modulation of GluA2 flip receptor (unknown origin) transfected in HEK293 cells assessed as desensitization measured as increase in steady-state current at 30 uM by electrophysiology
[4] = molecular target: Glutamate receptor 2 (Homo sapiens) (UniProt P42262); test: Modulation of GluA2 flip receptor (unknown origin) transfected in HEK293 cells assessed as deactivation of channel at 30 uM by electrophysiology
[5] = molecular target: Glutamate receptor 2 (Homo sapiens) (UniProt P42262); test: Modulation of GluA2 flip receptor (unknown origin) transfected in HEK293 cells assessed as desensitization measured as increase in steady-state current at 100 uM by electrophysiology
[6] = molecular target: Glutamate receptor 2 (Homo sapiens) (UniProt P42262); test: Modulation of GluA2 flop receptor (unknown origin) transfected in HEK293 cells assessed as deactivation of channel at 100 uM by electrophysiology
[7] = molecular target: Glutamate receptor 2 (Homo sapiens) (UniProt P42262); test: Modulation of GluA2 flip receptor (unknown origin) transfected in HEK293 cells assessed as deactivation of channel at 100 uM by electrophysiology
[8] = molecular target: Glutamate receptor 2 (Homo sapiens) (UniProt P42262); test: Modulation of GluA2 flop receptor (unknown origin) transfected in HEK293 cells assessed as desensitization measured as increase in steady-state current at 100 uM by electrophysiology

Glutamate receptor 2 (Homo sapiens), sequence (P42262 whole entry): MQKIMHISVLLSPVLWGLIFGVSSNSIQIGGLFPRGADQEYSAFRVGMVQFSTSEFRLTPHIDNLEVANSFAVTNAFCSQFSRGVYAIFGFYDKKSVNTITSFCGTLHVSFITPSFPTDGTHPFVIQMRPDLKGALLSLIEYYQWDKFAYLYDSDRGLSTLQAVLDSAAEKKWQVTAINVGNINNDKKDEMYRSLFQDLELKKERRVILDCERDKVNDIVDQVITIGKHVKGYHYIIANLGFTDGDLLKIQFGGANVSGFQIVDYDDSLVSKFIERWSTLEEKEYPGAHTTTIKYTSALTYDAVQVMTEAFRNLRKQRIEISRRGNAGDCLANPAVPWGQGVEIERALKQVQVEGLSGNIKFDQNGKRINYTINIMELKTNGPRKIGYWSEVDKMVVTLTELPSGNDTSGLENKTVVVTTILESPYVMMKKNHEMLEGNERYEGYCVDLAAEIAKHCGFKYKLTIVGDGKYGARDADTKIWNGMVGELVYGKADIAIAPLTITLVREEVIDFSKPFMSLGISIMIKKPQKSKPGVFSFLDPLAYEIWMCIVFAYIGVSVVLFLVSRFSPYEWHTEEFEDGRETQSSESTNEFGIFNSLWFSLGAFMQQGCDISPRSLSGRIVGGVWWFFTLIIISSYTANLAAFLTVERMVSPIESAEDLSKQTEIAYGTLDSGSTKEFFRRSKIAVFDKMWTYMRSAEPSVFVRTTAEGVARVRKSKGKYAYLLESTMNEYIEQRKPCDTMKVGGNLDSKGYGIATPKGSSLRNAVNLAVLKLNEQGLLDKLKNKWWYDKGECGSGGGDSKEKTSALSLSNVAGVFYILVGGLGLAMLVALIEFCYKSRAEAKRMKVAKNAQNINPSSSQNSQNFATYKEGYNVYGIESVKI

With O=C1c2ccc(-n3cc(CO)c(C(F)(F)F)n3)cc2OC[C@@H]2CCCN12 the Activity [1] was “inactive”, the Activity [2] was “inactive” and the Activity [3] was “inactive”. For the same molecule, the Activity [4] was “inactive”.

With O=S1(=O)c2ccc(Cn3cc(CO)c(C(F)(F)F)n3)cc2OC[C@@H]2CCCN21 the Activity [1] was “Active”, the Activity [2] was “inactive” and the Activity [3] was “Active”. The Activity [4] was “inactive”.

O=C1c2ccc(Cn3cc(CO)c(C(F)(F)F)n3)cc2OC[C@@H]2CCCN12 was tested, and the Activity [1] was “Active”, the Activity [2] was “inactive” and the Activity [3] was “Active”. The Activity [4] was “Active”.

For NC(=O)c1c(NC(=O)Cn2cc(CO)c(C(F)(F)F)n2)sc2ccccc12, the Activity [5] was “Active”, the Activity [6] was “Active” and the Activity [7] was “Active”. The Activity [8] was “Active”.
